Experimental data published in US9238039B2, “Pyrazolo[1,5-A]pyrimidines for antiviral treatment” (Gilead Sciences, Inc., priority 2010, dated 2016).

Tested on: RSV strain A2
Experiment: RSV antiviral cytoprotection assay in Hep2 cells (96-well and 384-well format, Cell TiterGlo read-out)
Format: cell-based, Respiratory Syncytial Virus (RSV)
Settings: human respiratory syncytial virus; for inhibition at 0.5 µM: HEp-2, 0.5 uM; for EC50: HEp-2, RSV-induced cytopathic effects, Hep2 cells, class symbols
[1] = RSV-induced cytopathic effect in Hep2 cells, calculated from fitted dose response curve, normalized to 0% and 100%

## COc1cccc(C(=O)N2CCCC[C@H]2c2cc3nc(N4CC[C@H](N)C4)c(C)cn3n2)c1O [Compound 325]
[1]
  inhibition at 0.5 µM: 98%
  EC50: 0.1 to 100 nM

## CS(=O)(=O)Nc1ccc(N)cc1C(=O)N1CCCC[C@H]1c1cc2nc(N3CCC3)cc(N3CCOCC3)n2n1 [Compound 193]
[1]
  inhibition at 0.5 µM: 100%
  EC50: 0.1 to 100 nM

## Cc1cn2nc([C@@H]3CCCCN3C(=O)c3cccn3C)cc2nc1N1CC[C@H](N)C1 [Compound 261]
[1]
  inhibition at 0.5 µM: 81%
  EC50: 101 to 1000 nM

## CS(=O)(=O)Nc1ccc(Br)cc1C(=O)N1CCCC[C@H]1c1cc2nc(N3CCC3)cc(N3CCOCC3)n2n1 [Compound 79]
[1]
  inhibition at 0.5 µM: 100%
  EC50: 0.1 to 100 nM

## Cc1cn2nc([C@@H]3CCCCN3C(=O)c3cc(C(F)(F)F)n(C)n3)cc2nc1N1CC[C@H](N)C1 [Compound 400]
[1]
  inhibition at 0.5 µM: 100%
  EC50: 0.1 to 100 nM

## COc1ccc(Cl)c(C(=O)N2CCCC[C@H]2c2cc3nc(N4CC[C@H](N)C4)c(C)cn3n2)c1 [Compound 374]
[1]
  inhibition at 0.5 µM: 100%
  EC50: 0.1 to 100 nM

## C[C@@H]1CN(c2cc(N3CCC3)nc3cc([C@@H]4CCCCN4C(=O)c4cc(Cl)ccc4NS(C)(=O)=O)nn23)C[C@H](C)N1 [Compound 163]
[1]
  inhibition at 0.5 µM: 100%
  EC50: 0.1 to 100 nM

## Cc1cn2nc([C@@H]3CCCCN3C(=O)c3cc(Cl)ccc3NS(C)(=O)=O)cc2nc1N1CCC(O)CC1 [Compound 218]
[1]
  inhibition at 0.5 µM: 72%
  EC50: 101 to 1000 nM

## CS(=O)(=O)Nc1ccc(Cl)cc1C(=O)N1CCCC[C@H]1c1cc2nc(N3CC(O)C3)cc(N3CC(O)C3)n2n1 [Compound 59]
[1]
  inhibition at 0.5 µM: 100%
  EC50: 0.1 to 100 nM

## Cc1cn2nc([C@@H]3CCCCN3C(=O)c3ccc(C#N)cn3)cc2nc1N1CC[C@H](N)C1 [Compound 290]
  EC50: 0.1 to 100 nM

## Cc1ccc(NS(C)(=O)=O)c(C(=O)N2CCCC[C@H]2c2cc3nc(N4CC(N)C4)c(C)cn3n2)c1 [Compound 191]
[1]
  inhibition at 0.5 µM: 100%
  EC50: 0.1 to 100 nM

## Cc1cn2nc([C@@H]3CCCCN3C(=O)c3ccc(F)c(C)c3Cl)cc2nc1N1CC[C@H](N)C1 [Compound 380]
[1]
  inhibition at 0.5 µM: 80%
  EC50: 101 to 1000 nM

## CS(=O)(=O)Nc1ccc(Cl)cc1C(=O)N1CCCC[C@H]1c1cc2nc(N3CCC3)cc(N3CCC(N)CC3)n2n1 [Compound 233]
[1]
  inhibition at 0.5 µM: 100%
  EC50: 0.1 to 100 nM

## Cc1cn2nc([C@@H]3CCCCN3C(=O)c3cc(Cl)ccc3NS(C)(=O)=O)cc2nc1N[C@H](C)CO [Compound 149]
[1]
  inhibition at 0.5 µM: 98%
  EC50: 0.1 to 100 nM

## CC(=O)c1cccc(C(=O)N2CCCC[C@H]2c2cc3nc(N4CC[C@H](N)C4)c(C)cn3n2)c1 [Compound 318]
[1]
  inhibition at 0.5 µM: 100%
  EC50: 0.1 to 100 nM

## Cc1cn2nc([C@@H]3CCCCN3C(=O)c3nonc3NCCO)cc2nc1N1CC[C@H](N)C1 [Compound 342]
[1]
  inhibition at 0.5 µM: 79%
  EC50: 101 to 1000 nM

## Cc1cc(N2CC(O)C2)nc2cc([C@@H]3CCCCN3C(=O)c3cc(Br)ccc3NS(C)(=O)=O)nn12 [Compound 82]
[1]
  inhibition at 0.5 µM: 100%
  EC50: 0.1 to 100 nM

## CCC(=O)Nc1nonc1C(=O)N1CCCC[C@H]1c1cc2nc(N3CC[C@H](N)C3)c(C)cn2n1 [Compound 372]
[1]
  inhibition at 0.5 µM: 38%
  EC50: 101 to 1000 nM

## Cc1cc(N2CC[C@@H](O)C2)nc2cc([C@@H]3CCCCN3C(=O)c3cc(Cl)ccc3NS(C)(=O)=O)nn12 [Compound 48]
[1]
  inhibition at 0.5 µM: 99%
  EC50: 0.1 to 100 nM

## Cc1ccc(NS(C)(=O)=O)c(C(=O)N2CCCC[C@H]2c2cc3nc(C)cc(N(C)C)n3n2)c1 [Compound 39]
[1]
  inhibition at 0.5 µM: 100%
  EC50: 0.1 to 100 nM

## Cc1cc(N2CCC2)nc2cc([C@@H]3CCCCN3C(=O)c3cc(Cl)ccc3NS(C)(=O)=O)nn12 [Compound 42]
[1]
  inhibition at 0.5 µM: 100%
  EC50: 0.1 to 100 nM

## C[C@H]1CN(c2cc(N3CCC3)nc3cc([C@@H]4CCCCN4C(=O)c4cc(Cl)ccc4NS(C)(=O)=O)nn23)CCN1 [Compound 155]
[1]
  inhibition at 0.5 µM: 100%
  EC50: 0.1 to 100 nM

## Cc1cc(C(=O)N2CCCC[C@H]2c2cc3nc(N4CC[C@H](N)C4)c(C)cn3n2)n(C(F)F)n1 [Compound 354]
[1]
  inhibition at 0.5 µM: 87%
  EC50: 101 to 1000 nM

## Cc1[nH]c2cc([C@@H]3C[C@H](C)CCN3C(=O)c3cc(F)ccc3NS(C)(=O)=O)nn2c(=O)c1C [Compound 21]
[1]
  inhibition at 0.5 µM: 4%
HEp-2, 1 uM, RSV-induced cytopathic effect in Hep2 cells, calculated from fitted dose response curve, normalized to 0% and 100%
  inhibition at 1 µM: 10%
  EC50: 1000 to 10000 nM

## Cc1cn2nc([C@@H]3CCCCN3C(=O)c3ccn(CC(F)F)n3)cc2nc1N1CC[C@H](N)C1 [Compound 356]
[1]
  inhibition at 0.5 µM: 100%
  EC50: 0.1 to 100 nM

## Cc1cn2nc([C@@H]3CCCCN3C(=O)c3cc(Cl)ccc3NS(C)(=O)=O)cc2nc1N1C[C@H](O)[C@@H](O)C1 [Compound 197]
[1]
  inhibition at 0.5 µM: 100%
  EC50: 0.1 to 100 nM

## CS(=O)(=O)Nc1ccc(Cl)cc1C(=O)N1CCCC[C@H]1c1cc2nc(N3CCC3)cc(N3CCC(O)CC3)n2n1 [Compound 44]
[1]
  inhibition at 0.5 µM: 100%
  EC50: 0.1 to 100 nM

## Cc1cn2nc([C@@H]3CCCCN3C(=O)c3cc(C)c(F)c(C)c3)cc2nc1N1CC[C@H](N)C1 [Compound 326]
[1]
  inhibition at 0.5 µM: 100%
  EC50: 0.1 to 100 nM
